In series [1] the target is Multidrug resistance protein 1a (Rattus norvegicus) (UniProt Q6PSM0). Briefly: TP_TRANSPORTER: increase in Vinblastine intracellular accumulation (Vinblastine: 0.0125 uM, Rifamycin B: 200 uM) in RHC1 cells. In kind it is functional, cell-based.
The target in series [2] is ATP-dependent translocase ABCB1 (Homo sapiens, UniProt P08183). The series can be described thus: TP_TRANSPORTER: inhibition of Azidopine photoaffinity labelling (Rifampicin: 200 uM) in membranes from K562 R7 cells. The settings on record: k562/r7, 200 µM. Format: functional, cell membranes, Membrane.
Chain of ATP-dependent translocase ABCB1 (P08183 whole entry): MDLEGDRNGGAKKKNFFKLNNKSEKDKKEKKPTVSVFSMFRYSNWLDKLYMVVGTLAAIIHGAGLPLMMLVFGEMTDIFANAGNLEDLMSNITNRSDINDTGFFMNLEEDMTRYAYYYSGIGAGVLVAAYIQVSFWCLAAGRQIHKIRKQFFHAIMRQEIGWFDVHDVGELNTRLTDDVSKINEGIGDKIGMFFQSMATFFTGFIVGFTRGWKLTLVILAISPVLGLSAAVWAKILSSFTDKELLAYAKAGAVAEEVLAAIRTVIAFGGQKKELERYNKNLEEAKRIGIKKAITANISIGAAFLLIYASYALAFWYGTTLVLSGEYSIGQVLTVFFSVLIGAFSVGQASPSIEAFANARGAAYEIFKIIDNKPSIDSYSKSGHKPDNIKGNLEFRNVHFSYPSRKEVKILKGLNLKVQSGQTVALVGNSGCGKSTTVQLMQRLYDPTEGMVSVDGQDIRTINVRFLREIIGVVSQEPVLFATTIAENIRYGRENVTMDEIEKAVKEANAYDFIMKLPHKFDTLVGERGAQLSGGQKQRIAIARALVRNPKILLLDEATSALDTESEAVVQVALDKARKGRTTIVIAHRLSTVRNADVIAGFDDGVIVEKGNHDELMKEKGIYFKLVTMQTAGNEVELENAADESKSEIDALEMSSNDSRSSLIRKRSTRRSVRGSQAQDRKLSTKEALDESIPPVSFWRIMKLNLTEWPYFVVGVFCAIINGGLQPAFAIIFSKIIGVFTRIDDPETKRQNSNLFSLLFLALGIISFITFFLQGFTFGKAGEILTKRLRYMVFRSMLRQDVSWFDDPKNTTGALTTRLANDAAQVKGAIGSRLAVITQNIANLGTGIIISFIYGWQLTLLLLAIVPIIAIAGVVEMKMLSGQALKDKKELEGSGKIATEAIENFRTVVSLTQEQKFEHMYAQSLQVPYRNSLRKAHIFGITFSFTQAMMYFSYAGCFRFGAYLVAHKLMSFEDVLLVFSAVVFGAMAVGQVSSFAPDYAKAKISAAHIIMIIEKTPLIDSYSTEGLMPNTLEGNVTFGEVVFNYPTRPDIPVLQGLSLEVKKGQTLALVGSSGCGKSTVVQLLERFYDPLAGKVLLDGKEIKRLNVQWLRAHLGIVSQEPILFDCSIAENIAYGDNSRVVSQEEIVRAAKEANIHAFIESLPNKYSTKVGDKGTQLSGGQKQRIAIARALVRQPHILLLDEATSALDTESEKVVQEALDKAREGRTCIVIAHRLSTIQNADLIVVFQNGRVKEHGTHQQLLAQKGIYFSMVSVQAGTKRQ
Series [3] has as its target Multidrug resistance protein 1a (Rattus norvegicus) (UniProt Q6PSM0). Briefly: TP_TRANSPORTER: increase in Vinblastine intracellular accumulation (Vinblastine: 0.0125 uM, Rifampicin: 200 uM) in RHC1 cells. Format: functional, cell-based.
The target is the same in series [4]. Briefly: TP_TRANSPORTER: increase in Vinblastine intracellular accumulation (Vinblastine: 0.0125 uM, Rifamycin SV: 200 uM) in RHC1 cells. Format: functional, cell-based.

Chain of Multidrug resistance protein 1a (Rattus norvegicus) (Q6PSM0 as listed by the source): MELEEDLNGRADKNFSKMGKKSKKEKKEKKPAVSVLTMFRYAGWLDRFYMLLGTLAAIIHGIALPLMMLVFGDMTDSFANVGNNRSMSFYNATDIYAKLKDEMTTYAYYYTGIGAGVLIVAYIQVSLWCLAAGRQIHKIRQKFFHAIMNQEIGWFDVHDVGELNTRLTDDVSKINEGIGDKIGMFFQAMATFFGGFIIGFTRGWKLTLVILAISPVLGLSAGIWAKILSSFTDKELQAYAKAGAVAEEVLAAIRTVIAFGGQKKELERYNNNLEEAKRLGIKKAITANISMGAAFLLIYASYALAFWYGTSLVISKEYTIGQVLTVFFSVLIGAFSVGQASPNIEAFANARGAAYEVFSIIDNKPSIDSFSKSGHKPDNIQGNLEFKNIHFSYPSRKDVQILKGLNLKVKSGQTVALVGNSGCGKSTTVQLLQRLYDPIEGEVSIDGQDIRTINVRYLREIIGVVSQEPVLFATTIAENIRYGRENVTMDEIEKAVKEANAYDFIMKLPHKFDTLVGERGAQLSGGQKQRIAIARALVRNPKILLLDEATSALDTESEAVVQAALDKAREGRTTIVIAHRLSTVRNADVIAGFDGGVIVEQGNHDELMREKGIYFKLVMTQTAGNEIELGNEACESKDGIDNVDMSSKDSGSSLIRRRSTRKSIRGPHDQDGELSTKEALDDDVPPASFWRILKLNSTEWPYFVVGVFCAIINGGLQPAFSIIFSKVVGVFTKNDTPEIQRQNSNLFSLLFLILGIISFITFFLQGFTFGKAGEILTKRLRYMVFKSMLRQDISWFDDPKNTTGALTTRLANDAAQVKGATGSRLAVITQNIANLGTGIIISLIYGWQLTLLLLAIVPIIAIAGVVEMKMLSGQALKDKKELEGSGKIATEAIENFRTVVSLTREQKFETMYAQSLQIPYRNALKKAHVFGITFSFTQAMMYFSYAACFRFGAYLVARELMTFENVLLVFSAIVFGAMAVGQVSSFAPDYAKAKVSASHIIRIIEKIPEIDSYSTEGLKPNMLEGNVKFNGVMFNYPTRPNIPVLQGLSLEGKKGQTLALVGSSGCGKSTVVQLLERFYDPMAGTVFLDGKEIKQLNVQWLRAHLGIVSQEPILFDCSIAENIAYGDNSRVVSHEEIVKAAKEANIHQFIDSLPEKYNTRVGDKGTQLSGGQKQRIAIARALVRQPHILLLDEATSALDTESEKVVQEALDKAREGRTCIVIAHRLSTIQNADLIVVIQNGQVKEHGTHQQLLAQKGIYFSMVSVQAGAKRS

As to `COC1/C=C/OC2(C)Oc3c(C)c(O)c4c(O)c(cc(OCC(=O)Nc5ccc(I)cc5)c4c3C2=O)NC(=O)/C(C)=C\C=C\C(C)C(O)C(C)C(O)C(C)C(OC(C)=O)C1C` (centres undefined), the Activity entry in series [1] was “is not an inhibitor [-]”.
Consider `CO[C@H]1/C=C/O[C@@]2(C)Oc3c(C)c(O)c4c(O)c(c(/C=N/N5CCN(C)CC5)c(O)c4c3C2=O)NC(=O)/C(C)=C\C=C\[C@H](C)[C@H](O)[C@@H](C)[C@@H](O)[C@@H](C)[C@H](OC(C)=O)[C@@H]1C` [RIFAMPIN], for which the Activity result in series [2] and in series [3] was “inhibitor [+]” each time.
For the compound `CO[C@H]1/C=C/O[C@@]2(C)Oc3c(C)c(O)c4c(O)c(cc(O)c4c3C2=O)NC(=O)/C(C)=C\C=C\[C@H](C)[C@H](O)[C@@H](C)[C@@H](O)[C@@H](C)[C@H](OC(C)=O)[C@@H]1C`, in series [4], the Activity result is “inhibitor [+]”.

The record behind these values is ChEMBL document CHEMBL2074349, “Rifampicin enhances anti-cancer drug accumulation and activity in multidrug-resistant cells” (Biochem Pharmacol, 1995).
